{
  "source": "patent US12263153B2",
  "about": "“Pharmaceutical composition, methods for treating and uses thereof” (Boehringer Ingelheim International GmbH, priority 2016, dated 2025)",
  "key": {"[1]": {"test": "blood pressure, heart rate and sympathetic activation under empagliflozin treatment", "format": "in vivo", "conditions": "treatment with empagliflozin", "excerpt": "It may be assumed that altered glucose and sodium gradients within the kidney may generate a sympathoinhibitory afferent renal nerve signal. The lack of sympathetic activation may contribute to a beneficial cardiovascular and renal profile of empagliflozin (cardiorenal axis). Based on clinical and non-clinical studies including mechanistic considerations, such as the effect of empagliflozin on human autonomic cardiovascular regulation, the use of empagliflozin in the treatment, prevention or slowing the progression of certain diseases and conditions or reducing the risk thereof, in particular chronic kidney disease and cardiovascular death in certain patients, is described hereinbefore and hereinafter."}, "[2]": {"conditions": "patients with type 2 diabetes mellitus and high cardiovascular risk; cited from earlier work"}, "[3]": {"conditions": "human, in vivo; cited from earlier work"}},
  "data": [
    {"compound": "OC[C@H]1O[C@@H](c2ccc(Cl)c(Cc3ccc(O[C@H]4CCOC4)cc3)c2)[C@H](O)[C@@H](O)[C@@H]1O", "note": "[empagliflozin, 1-chloro-4-(β-D-glucopyranos-1-yl)-2-[4-((S)-tetrahydrofuran-3-yloxy)-benzyl]-benzene]", "values": [
      {"measurement": "heart rate", "setting": "[1]", "value": "without clinically relevant changes"},
      {"measurement": "risk of cardiovascular death", "setting": "[2]", "value": "reduced the risk"},
      {"measurement": "risk of overall mortality", "setting": "[2]", "value": "reduced the risk"},
      {"measurement": "arterial stiffness", "setting": "[3]", "value": "reduced arterial stiffness"},
      {"measurement": "direct vascular effects", "setting": "[3]", "value": "direct vascular effects"},
      {"measurement": "diuretic effect", "setting": "[3]", "value": "shows a diuretic effect"}
    ]}
  ]
}
